Data taken from BigSolDB 2.1.

Cc1ccc(Nc2nccc(N(C)c3ccc4c(C)n(C)nc4c3)n2)cc1S(N)(=O)=O
solubility (mole fraction)
Settings	288.15 K	293.15 K	298.15 K	303.15 K	308.15 K	313.15 K	318.15 K	323.15 K	328.15 K
in ethanol	7.97e-06	1.01e-05	1.27e-05	1.61e-05	1.96e-05	2.36e-05	2.85e-05	3.41e-05	4.04e-05
in ethyl acetate	6.17e-06	8.06e-06	1.04e-05	1.31e-05	1.63e-05	2e-05	2.48e-05	3.06e-05	3.7e-05
in isopropanol	9.43e-06	1.19e-05	1.49e-05	1.86e-05	2.25e-05	2.71e-05	3.25e-05	3.9e-05	4.69e-05
